# Data reported in the NIST ThermoML archive (doi:10.1016/j.fluid.2006.09.017).
# Numbers after ± are expanded uncertainties.
# Conditions: Liquid
Structure (SMILES),vapor or sublimation pressure (258.15 K) [kPa],vapor or sublimation pressure (263.15 K) [kPa],vapor or sublimation pressure (268.15 K) [kPa],vapor or sublimation pressure (275.15 K) [kPa],vapor or sublimation pressure (283.15 K) [kPa],vapor or sublimation pressure (293.15 K) [kPa],vapor or sublimation pressure (303.15 K) [kPa],vapor or sublimation pressure (313.15 K) [kPa],vapor or sublimation pressure (323.15 K) [kPa],vapor or sublimation pressure (333.15 K) [kPa],vapor or sublimation pressure (343.15 K) [kPa]
"FCC(F)(F)F [1,1,1,2-tetrafluoroethane]",163.9 ± 5.9,200.6 ± 6.8,243.3 ± 7.9,314.6 ± 10,414.6 ± 13,571.7 ± 18,770.2 ± 24,1017 ± 32,1318 ± 41,1682 ± 52,2117 ± 66
FCF [difluoromethane],488.1 ± 15,,690.6 ± 22,866.5 ± 27,1107 ± 35,1475 ± 46,1928 ± 60,2478 ± 77,3141 ± 98,3933 ± 120,4877 ± 150
